# Experiments:
# [1] = test system: EKVX; assay: NCI 60 antitumor screening (single dose / five doses); format: cell-based; settings: Homo sapiens, EKVX, read-out: Growth inhibition percentage (GI %)
# [2] = test system: HCT-116; assay: as above; format: cell-based; settings: Homo sapiens, HCT-116, read-out: Growth inhibition percentage (GI %)
# [3] = test system: SW-620; assay: as above; format: cell-based, human; settings: Homo sapiens, SW-620, read-out: Growth inhibition percentage (GI %)
# [4] = test system: HCT-15; assay: as above; format: cell-based; settings: Homo sapiens, HCT-15, read-out: Growth inhibition percentage (GI %)
# [5] = test system: K-562; assay: as above; format: cell-based; settings: Homo sapiens, K562, read-out: Growth inhibition percentage (GI %)
# [6] = test system: T-47D; assay: as above; format: cell-based; settings: Homo sapiens, T47D, read-out: Growth inhibition percentage (GI %)
# [7] = test system: SF-539; assay: as above; format: cell-based; settings: Homo sapiens, SF-539, read-out: Growth inhibition percentage (GI %)
# [8] = test system: MDA-MB-468; assay: as above; format: cell-based; settings: Homo sapiens, MDA-MB-468, read-out: Growth inhibition percentage (GI %)
# [9] = test system: SNB-75; assay: as above; format: cell-based; settings: Homo sapiens, SNB-75, read-out: Growth inhibition percentage (GI %)
# [10] = test system: SK-MEL-5; assay: as above; format: cell-based; settings: Homo sapiens, SK-MEL-5, read-out: Growth inhibition percentage (GI %)
# [11] = test system: LOX IMVI; assay: as above; format: cell-based; settings: Homo sapiens, LOX IMVI, read-out: Growth inhibition percentage (GI %)
# [12] = test system: CCRF-CEM; assay: as above; format: cell-based; settings: Homo sapiens, CCRF-CEM, read-out: Growth inhibition percentage (GI %)
# [13] = test system: SK-MEL-2; assay: as above; format: cell-based; settings: Homo sapiens, SK-MEL-2, read-out: Growth inhibition percentage (GI %)
# [14] = test system: COLO 205; assay: as above; format: cell-based; settings: Homo sapiens, COLO 205, read-out: Growth inhibition percentage (GI %)
# [15] = test system: UACC-62; assay: as above; format: cell-based; settings: Homo sapiens, UACC-62, read-out: Growth inhibition percentage (GI %)
# [16] = test system: 60 human subpanel cancer cell lines; assay: NCI 60 antitumor screening, mean over the panel (single dose); format: cell-based; settings: mean over 60 cancer cell lines, single dose 10 μM
# Protocol: Initially, the anticancer effects of target compounds have been assessed at a single (10 μM) dose. The obtained data have been reported as mean-graph of the percent growth (G%) of the treated cancer cells. Percentage growth inhibition (GI%) is calculated (100 − G%) and pronounced in Table 1. […] Target compounds in series (III) with manipulated linkers disclosed lower potency. Superiorly, eight s-triazine derivatives from the three series (6a, 6c, 6d, 7a, 7g, 7i, 7l, and 8b) have shown potent broad-spectrum anticancer activity against most the examined cell lines, whereas most of the remaining triazine derivatives, 20 derivatives, have exerted selective anti-proliferative actions towards certain cancer cell lines (Supplementary).
# The antitumor screening was performed for 60 human cancer cell lines under the protocol of NCI (www.dtp.nci.nih.gov), the Drug Evaluation Branch, Bethesda, MD. All submitted compounds were nominated based on the degree of structural diversity and computer modelling techniques for evaluation of their anticancer activity. The screening process for antineoplastic activity passes through two successive levels, starting with the assessment of target compounds at a single dose of 10 μM against 60 cancer cell lines on nine types of human tumours. These experiments were done on a triplicate following. The output from the single‐dose screening was covered as a mean graph, and then, analysed by the COMPARE program. Finally, the compounds which disclosed subpanel cancer cell growth (G %) equal to or less than 10% in at least eight cancer cell lines get to pass the assessment against the 60 cell lines at five doses (0.01–100 μM). By using GraphPad Prism version 9.0 (Graphpad Software Inc., La Jolla, CA), GI50, TGI, as well as LC50 dose‐response parameters were computed and presented for each compound (Supplementary information)[55–57].
# [17] = test system: MALME-3M; assay: NCI 60 antitumor screening (single dose / five doses); format: cell-based; settings: Homo sapiens, Malme-3M, read-out: Growth inhibition percentage (GI %)
# [18] = test system: SF-295; assay: as above; format: cell-based; settings: Homo sapiens, SF-295, read-out: Growth inhibition percentage (GI %)
# [19] = test system: SK-MEL-28; assay: as above; format: cell-based; settings: Homo sapiens, SK-MEL-28, read-out: Growth inhibition percentage (GI %)
# [20] = test system: MDA-MB-231/ATCC; assay: as above; format: cell-based; settings: Homo sapiens, MDA-MB-231, read-out: Growth inhibition percentage (GI %)
# [21] = test system: A498; assay: as above; format: cell-based; settings: Homo sapiens, A498, read-out: Growth inhibition percentage (GI %)
# [22] = test system: SN 12C; assay: as above; format: cell-based; settings: Homo sapiens, SN12C, read-out: Growth inhibition percentage (GI %)
# [23] = test system: HL-60(TB); assay: as above; format: cell-based; settings: Homo sapiens, HL-60, read-out: Growth inhibition percentage (GI %)
# [24] = test system: ACHN; assay: as above; format: cell-based; settings: Homo sapiens, ACHN, read-out: Growth inhibition percentage (GI %)
# [25] = test system: MOLT-4; assay: as above; format: cell-based; settings: Homo sapiens, MOLT-4, read-out: Growth inhibition percentage (GI %)
# [26] = test system: HT29; assay: as above; format: cell-based, human; settings: Homo sapiens, HT-29, read-out: Growth inhibition percentage (GI %)
# [27] = test system: NCI/ADR-RES; assay: as above; format: cell-based; settings: Homo sapiens, NCI/ADR-RES, read-out: Growth inhibition percentage (GI %)
# [28] = test system: IGROV1; assay: as above; format: cell-based; settings: Homo sapiens, IGROV-1, read-out: Growth inhibition percentage (GI %)
smiles,measurement,setting,value
"C/C(=N\Nc1nc(N/N=C(\C)c2ccc([N+](=O)[O-])cc2)nc(N2CCOCC2)n1)c1ccc([N+](=O)[O-])cc1 [compound 8a, 2-(Morpholin-4-yl)-4,6-bis[(E)-2-[1–(4-nitrophenyl)ethylidene]hydrazin-1-yl]-1,3,5-triazine]",inhibition at 10 µM,[1],31.9%
same,inhibition at 10 µM,[2],29.4%
same,inhibition at 10 µM,[3],4.48%
same,inhibition at 10 µM,[4],33.9%
same,inhibition at 10 µM,[5],20.3%
same,inhibition at 10 µM,[6],45.1%
same,inhibition at 10 µM,[7],84.5%
same,inhibition at 10 µM,[8],20.4%
same,inhibition at 10 µM,[9],19.4%
same,inhibition at 10 µM,[10],32.9%
same,inhibition at 10 µM,[11],61.1%
same,inhibition at 10 µM,[12],38.4%
same,inhibition at 10 µM,[13],3.61%
same,inhibition at 10 µM,[14],5.21%
same,inhibition at 10 µM,[15],14.7%
same,Mean GI %,[16],23.27%
same,inhibition at 10 µM,[17],30.6%
same,inhibition at 10 µM,[18],33.5%
same,inhibition at 10 µM,[19],16.2%
same,inhibition at 10 µM,[20],56.5%
same,inhibition at 10 µM,[21],33.9%
same,inhibition at 10 µM,[22],-27.4%
same,inhibition at 10 µM,[23],7.4%
same,inhibition at 10 µM,[24],22.1%
same,inhibition at 10 µM,[25],21.1%
same,inhibition at 10 µM,[26],19.4%
same,inhibition at 10 µM,[27],31.3%
same,inhibition at 10 µM,[28],6.22%

# Source: PMC9848300, “Discovery of novel enasidenib analogues targeting inhibition of mutant isocitrate dehydrogenase 2 as antileukaemic agents” (Journal of Enzyme Inhibition and Medicinal Chemistry, 2023)
